Source: patent publication US10273451B2, “Immortalization of cells including neuronal cells” (The Johns Hopkins University, priority 2005, dated 2019)

Assays:
50B11 cells [1] = conditions: 24 hours
Procedure: Conditions for culturing the 50B11 cells and measuring the ATP levels were optimized for the 96-well plate format. Initially 500 cells/well were plated in 96-well plates for 24 hours and then differentiated with forskolin (50 μM) in culture medium with reduced serum (0.2%). […] Cellular ATP levels were measured using the ViaLight Plus kit (Cambrex, city, state) according to manufacturer's instructions. This luciferase-based assay allows measurement of ATP levels on a luminometer with minimal manipulation of the well contents.
Next, we tested whether we can evaluate the neurotoxicity of capsaicin in an assay suitable for 96-well plate format. Capsaicin causes axonal degeneration and death of nociceptive DRG sensory neurons [ref here]. In order to evaluate cell survival we used a luciferase-based assay to measure cellular ATP levels.

TRPV-1 = molecular target: T1, TRPV-1 (Rattus norvegicus, UniProt O35433); assay: Ca2+ microfluorimetry (fura-2 ratiometric imaging) of the capsaicin response; type: cell-based
T1 construct: endogenous in cells; host or cells: 50B11 immortalized rat DRG neuronal cell line, with and without forskolin differentiation
Procedure: Ca^2+ microfluorimetry and imaging in forskolin-differentiated 50HB cells were performed by ratiometric imaging of the Ca2+-sensitive fluorescent dye fura-2. Cells were grown on glass coverslips in 12-well dishes and calcium imaging was done with and without differentiation with 50-μM forskolin. Cell were loaded for 15 min at 37° C. with 2 M fura-2 acetoxymethyl ester (Molecular Probes, Carlsbad, Calif.) in Krebs-HEPES buffer (100 mM NaCl, 2.0 mM KCl, 1.0 mM CaCl2, 1.0 mM MgCl2, 1.0 mM NaH2PO4, 4.2 mM NaHCO3, 12.5 mM HEPES and 10.0 mM glucose), then washed for 3 times in buffer to remove remaining fura-2 ester. The coverslip with loaded cells was then mounted on an inverted epifluorescence microscope (Zeiss, Axiovert 200) and covered with 60 μl Krebs-HEPES buffer or buffer with capsaicin. In capsazepin pretreatment experiments, capsazepin was added Images were acquired every ˜3 seconds with an extended Hamamatsu Digital Camera C4742-95 (Hamamatsu Photonics, Barcelona, Spain) using a dual filter wheel (Sutter Instruments, Novato, Calif., USA) equipped with 340 and 380 nm, 10-nm-bandpass filters (Omega Optics, Madrid, Spain). Data was acquired using InCyt Im2 software (Intracellular Imaging, Inc.). Fluorescence changes are expressed as the ratio of fluorescence at 340 and 380 nm (F340/F380).

50B11 cells [2] = assay: Axonal degeneration, total neurite length measurement; type: cell-based, rat; conditions: differentiated 50B11 cells treated 24 hours
50B11 cells [3] = assay: Forskolin-induced differentiation and neurite extension of the immortalized DRG neuronal line; type: cell-based, rat; conditions: for neurite extension in presence of neurotrophic factor: 50B11 cells
Procedure: One of the immortalized DRG neuronal cell lines (50B11) maintained self-replication capability over many cell divisions (>300) and was used in further analysis of neuronal properties. Differentiation and axonal elongation was induced in these cells by addition of forskolin (50 μM) into the culture medium. Within hours, more than 90% cells stopped dividing and extended long neurites. These cells were grown in 24-well plates on glass coverslips, fixed with 4% paraformaldehyde and immunostained for presence of neurofilament (SMI-32 antibody from Stemberger Monoclonals Inc., Lutherville, Md.), ßIII-tubulin (Promega, Madison Wis.), transient receptor potential channel, vanilloid subfamily member-1 (TRPV-1) (Abeam, Cambridge, Mass.), calcitonin gene related protein (CGRP) (source, city, state) or isolectin B-4 (IB4) (Vector Laboratories, Burlingame, Calif.) using standard methods (Keswani et al., supra). Slides were counterstained with 4′,6-Diamidino-2-phenylindole (DAPI) and mounted with Vectashield (Vector Laboratories, Burlingame, Calif.). Specificity of all primary and secondary antibodies was confirmed using appropriate positive and negative control cultures.

50B11 cells [4] = assay: Real-time PCR of gene expression changes; type: cell-based, rat
Procedure: For analysis of changes in gene expression, 501311 cells were grown in media containing forskolin (50 μM), NGF (10 ng/ml), GDNF (10 ng/ml) or vehicle control for 24 hours. Total RNA was isolated using the TRIzol Reagent according to the manufacturer's recommendation. Two μg total RNA was reverse-transcribed using Ready-To-Go You-Prime First-Strand Bead (Amersham Biosciences, Piscataway, N.J.) according to manufacturer's protocols. Real-time PCR was carried out in a DNA Engine Opticon Continuous Fluorescence Detection System using DyNAmo SYBR Green Polymerase (MJ Research, Waltham, Mass.). All primers were designed according to the individual gene sequence in the GenBank/EMBL nucleotide sequence database (primer sequences are available upon request). The binding positions of all primers were chosen to produce amplicons of 150 to 200 base pairs and to achieve maximum efficiency and specificity. All primer sequences were checked for specificity by a BLAST search in the GenBank/EMBL nucleotide sequence database. The primers were synthesized by Integrated DNA Technologies, Inc. (Coralville, Iowa). […] The expression levels of individual genes before and after treatment were calculated using the comparative CT method.

T1 sequence (O35433 whole entry): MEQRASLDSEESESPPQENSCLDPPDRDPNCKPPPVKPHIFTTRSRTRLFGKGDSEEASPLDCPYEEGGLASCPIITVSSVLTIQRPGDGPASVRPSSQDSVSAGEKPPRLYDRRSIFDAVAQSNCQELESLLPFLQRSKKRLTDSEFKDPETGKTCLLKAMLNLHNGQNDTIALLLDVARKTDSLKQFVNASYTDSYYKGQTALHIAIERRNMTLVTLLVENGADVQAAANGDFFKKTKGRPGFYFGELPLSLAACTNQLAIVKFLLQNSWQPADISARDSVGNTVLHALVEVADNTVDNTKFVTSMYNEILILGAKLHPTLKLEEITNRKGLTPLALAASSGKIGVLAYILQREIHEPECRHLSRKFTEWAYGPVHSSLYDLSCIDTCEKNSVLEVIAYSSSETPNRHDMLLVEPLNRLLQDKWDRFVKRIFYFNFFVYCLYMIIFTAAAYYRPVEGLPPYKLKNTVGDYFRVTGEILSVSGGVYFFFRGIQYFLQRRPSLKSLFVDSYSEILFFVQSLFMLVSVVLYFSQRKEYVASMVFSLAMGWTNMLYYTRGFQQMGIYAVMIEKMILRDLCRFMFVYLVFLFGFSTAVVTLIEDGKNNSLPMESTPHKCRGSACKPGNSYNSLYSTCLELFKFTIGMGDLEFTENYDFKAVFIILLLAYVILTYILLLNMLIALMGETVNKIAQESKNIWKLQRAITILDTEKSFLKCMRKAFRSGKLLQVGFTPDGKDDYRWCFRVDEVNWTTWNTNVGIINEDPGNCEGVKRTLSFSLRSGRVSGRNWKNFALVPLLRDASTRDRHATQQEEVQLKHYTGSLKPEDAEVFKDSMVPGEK

CCC(C)(C)C(=O)C(=O)N1CCC[C@H]1C(=O)OCCCc1cccnc1 [GPI-1046]
prevention of ddC neurotoxicity (ATP levels) (50B11 cells [1]; co-administration with ddC): preventable

COc1cc(CNC(=O)CCCC/C=C/C(C)C)ccc1O [capsaicin]
intracellular calcium levels (TRPV-1; 50B11 cells, fura-2 F340/F380): rapid rise in intracellular calcium levels
reduction in ATP levels (50B11 cells [1]; 10 μM capsaicin, differentiated 50B11 cells): about 50%

Oc1cc2c(cc1O)CN(C(=S)NCCc1ccc(Cl)cc1)CCC2 [capsazepin]
prevention of capsaicin-induced rise in intracellular calcium (TRPV-1; pretreatment of 50B11 cells before capsaicin): preventable
prevention of capsaicin-induced neurotoxicity (ATP levels) (50B11 cells [1]; co-administration with capsaicin): preventable

Nc1ccn([C@H]2CC[C@@H](CO)O2)c(=O)n1 [ddC]
toxicity by total neuritic lengths (50B11 cells [2]): validated this toxicity

C=C[C@@]1(C)CC(=O)[C@]2(O)[C@@]3(C)[C@@H](O)CCC(C)(C)[C@@H]3[C@H](O)[C@H](OC(C)=O)[C@@]2(C)O1 [forskolin]
cells that stopped dividing and extended long neurites (50B11 cells [3]; forskolin 50 μM in culture medium, within hours): more than 90%

NGF: neurotrophic factor, nerve growth factor
Trk-A upregulation (50B11 cells [4]; forskolin plus NGF 10 ng/ml versus forskolin plus GDNF): more upregulated
neurite extension in presence of neurotrophic factor (50B11 cells [3]): extended longer neurites

B1: GDNF: neurotrophic factor acting on c-ret and GFRα-1 (protein, UniProt P39905 78-211, looked up)
Glial cell line-derived …: SPDKQMAVLPRRERNRQAAAANPENSRGKGRRGQRGKNRGCVLTAIHLNVTDLGLGYETKEELIFRYCSGSCDAAETTYDKILKNLSRNRRLVSDKVGQACCRPIAFDDDLSFLDDNLVYHILRKHSAKRCGCI
GFRα-1 upregulation (50B11 cells [4]; forskolin plus GDNF 10 ng/ml versus forskolin plus NGF): more upregulated
neurite extension in presence of neurotrophic factor (50B11 cells [3]): extended longer neurites
